For assay [1], the target named is human IL-17A / human IL-17RA (Homo sapiens (Human), UniProt Q16552). Kind of assay: Human IL-17A biochemical assay (HTRF, blocking of IL-17A binding to IL-17RA). The note with it: 0.4 nM IL-17A, 0.3 nM IL-17RA, max compound concentration 10 uM. In short, it runs like this: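 HTRF competition: 0.4 nM recombinant human IL-17A pre-incubated 3 h at room temperature with compound (top 10 uM, 2.7-fold, 10 points) in HEPES pH 7.5 buffer, then 0.3 nM IL-17RA added for 1 h, then anti-6His-Tb/anti-human IgG-XL665 detection for 1 h.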
(In general: In TR-FRET formats the signal depends on donor and acceptor labels being close together.)

The test system of assay [2] is IL-17-induced GROα secretion from HT-29 cells. Kind of assay: GROα release assay in human colorectal adenocarcinoma epithelial cell (HT-29, ELISA). Format: cell-based. Conditions: Homo sapiens, HT-29, 48 h, 10 ng/mL IL-17A, highest concentration 10 μM, read-out: Cellular assay HT29 cell/CXCL1 IC50. The protocol: The purpose of the assay is to test the ability of a compound to neutralize IL17A proteins. IL17 can stimulate human epithelial cells to secrete GROα. The ability of one compound of the invention to neutralize IL-17-induced GROα secretion from the human colorectal adenocarcinoma epithelia cell line HT-29 is tested in this assay.
HT-29 cells (human colorectal adenocarcinoma epithelia cell, ATCC) were stimulated with IL-17A (Novoprotein, #C774) in final concentration of 10 ng/mL. The resultant GROα response was measured using an ELISA kit from Invitrogen (#88-52122). HT-29 cells were cultured in complete medium (McCoy's 5A medium+10% FBS) and maintained in a tissue culture flask using standard techniques. On day 1, detached the cell by using TrypLE (Gibco, #12605036) and used the complete medium to neutralize. The cells were centrifuged at 11,00 rmp for 4 minutes. Re-suspended the cell pellet in complete medium and seeded 50,000 HT-29 cells into the 96-well assay plate (Corning, 3599) at 135 μL complete medium per well. The cells were incubated for overnight, at 37° C./5% CO2 to adherent the plate. On day 2, prepared a 4-fold serial dilution of the tested compound in DMSO. The highest concentration of the compound was 10 μM. Transferred 2 μL of the serial diluted compound from the serial dilution plate into the reagent plate which was contained 198 μL complete medium with 100 ng/mL IL-17A per well. The compounds were incubated with the IL-17A for 15 minutes. 15 μL mixtures from reagent plate were transferred into the cell assay plate. Incubated the plate at 37° C./5% CO2 for 48 hours. After the incubation, on day 4, GROα level were measured with GROα ELISA as the manufacturer's instructions. 50 μL supernatant was collected form the assay plate to ELISA plate. ELISA plate was read at 450 nm on a microplate reader and compared to a standard calibration curve.
Data were processed using GraphPad Prism. GROα concentration was calculated from the standard curve. IC50 was determined using the equation log concentration (inhibitor) against response and fitted to four parameters.
In general terms: ELISA stands for enzyme-linked immunosorbent assay.

Molecules are shown by their SMILES.

Sequence of human IL-17A / human IL-17RA (Q16552 24-155): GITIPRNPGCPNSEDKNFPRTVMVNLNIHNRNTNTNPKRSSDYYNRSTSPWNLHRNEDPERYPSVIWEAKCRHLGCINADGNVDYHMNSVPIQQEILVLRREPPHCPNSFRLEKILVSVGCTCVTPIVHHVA

For `CNC(=O)C1(N2C[C@@H](C(C)C)NC2=O)Cc2ccc(NC(=O)[C@@H](NC(=O)c3cnn(C)c3)C3CCCCC3)cc2C1` (stereo partly drawn) [Example 61, N-((1S)-1-cyclohexyl-2-((2-((R)-4-isopropyl-2-oxoimidazolidin-1-yl)-2-(methylcarbamoyl)-2,3-dihydro-1H-inden-5-yl)amino)-2-oxoethyl)-1-methyl-1H-pyrazole-4-carboxamide], the IC50 in assay [1] came to 857 nM; in assay [2], 4960 nM.
For `COCC1(N2CC(C(F)(F)F)NC2=O)Cc2ccc(NC(=O)[C@@H](NC(=O)c3nonc3C)C(C3CC3)C3CC3)cc2C1` (stereo partly drawn) [Example 225, N-((2S)-1,1-dicyclopropyl-3-((2-(methoxymethyl)-2-(2-oxo-4-(trifluoromethyl)imidazolidin-1-yl)-2,3-dihydro-1H-inden-5-yl)amino)-3-oxopropan-2-yl)-4-methyl-1,2,5-oxadiazole-3-carboxamide], in that order: 1270 nM and 2320 nM.
`COCC1(N2CC3(CC3)CNC2=O)Cc2ccc(NC(=O)[C@@H](NC(=O)c3ccnn3C)C3CCCCC3)cc2C1` (stereo partly drawn) [Example 156, N-((1S)-1-cyclohexyl-2-((2-(methoxymethyl)-2-(6-oxo-5,7-diazaspiro[2.5]octan-5-yl)-2,3-dihydro-1H-inden-5-yl)amino)-2-oxoethyl)-1-methyl-1H-pyrazole-5-carboxamide]: the IC50 in assay [1] was determined as 68.3 nM; in assay [2], 305 nM.
For `CNC(=O)C1(N2CC(C)(C)NC2=O)Cc2ccc(NC(=O)[C@@H](NC(=O)c3ccnn3C)C3CCCCC3)cc2C1` (stereo partly drawn) [Example 20, N-((1S)-1-cyclohexyl-2-((2-(4,4-dimethyl-2-oxoimidazolidin-1-yl)-2-(methylcarbamoyl)-2,3-dihydro-1H-inden-5-yl)amino)-2-oxoethyl)-1-methyl-1H-pyrazole-5-carboxamide], in that order: 980 nM and 476 nM.
Take `Cc1nonc1C(=O)N[C@H](C(=O)Nc1ccc2c(c1)CC(c1nc3cccc(C(F)(F)F)c3[nH]1)(N1CC3(CC3)CNC1=O)C2)C1CCC(F)(F)CC1` (stereo partly drawn) [Example 192, N-((1S)-1-(4,4-difluorocyclohexyl)-2-oxo-2-((2-(6-oxo-5,7-diazaspiro[2.5]octan-5-yl)-2-(7-(trifluoromethyl)-1H-benzo[d]imidazol-2-yl)-2,3-dihydro-1H-inden-5-yl)amino)ethyl)-4-methyl-1,2,5-oxadiazole-3-carboxamide]: the IC50 worked out at 1660 nM in assay [1] and 1240 nM in assay [2].
For `Cc1nonc1C(=O)N[C@H](C(=O)Nc1ccc2c(c1)CC(C(=O)Nc1ccc(Cl)cc1)(N1C[C@@H](C(C)C)NC1=O)C2)C(C1CC1)C1CC1` (stereo partly drawn) [Example 269, N-((2S)-1-((2-((4-chlorophenyl)carbamoyl)-2-((R)-4-isopropyl-2-oxoimidazolidin-1-yl)-2,3-dihydro-1H-inden-5-yl)amino)-3,3-dicyclopropyl-1-oxopropan-2-yl)-4-methyl-1,2,5-oxadiazole-3-carboxamide], in that order: 416 nM and 1070 nM.
`CNC(=O)C1(N2C[C@@H](C(C)C)NC2=O)Cc2ccc(NC(=O)[C@@H](NC(=O)c3cccc(OC(C)C)c3)C3CCCCC3)cc2C1` (stereo partly drawn) [Example 84, 5-((S)-2-cyclohexyl-2-(3-isopropoxybenzamido)acetamido)-2-((R)-4-isopropyl-2-oxoimidazolidin-1-yl)-N-methyl-2,3-dihydro-1H-indene-2-carboxamide]: the IC50 is 37 nM in assay [1] and 94.4 nM in assay [2].
For `CC[C@@H]1CN(C2(C(=O)NC)Cc3ccc(NC(=O)[C@@H](NC(=O)c4ccnn4C)C(C4CC4)C4CC4)cc3C2)C(=O)N1` (stereo partly drawn) [Example 166, N-((2S)-1,1-dicyclopropyl-3-((2-((R)-4-ethyl-2-oxoimidazolidin-1-yl)-2-(methylcarbamoyl)-2,3-dihydro-1H-inden-5-yl)amino)-3-oxopropan-2-yl)-1-methyl-1H-pyrazole-5-carboxamide], in that order: 169 nM and 135 nM.
As for `CNC(=O)C1(N2CC(C(C)C)NC2=O)Cc2ccc(NC(=O)[C@@H](NC(=O)c3nonc3C)C3CCCCC3)cc2C1` (stereo partly drawn) [Example 30, N-((1S)-1-cyclohexyl-2-((2-(4-isopropyl-2-oxoimidazolidin-1-yl)-2-(methylcarbamoyl)-2,3-dihydro-1H-inden-5-yl)amino)-2-oxoethyl)-4-methyl-1,2,5-oxadiazole-3-carboxamide], the IC50 amounted to 58 nM in assay [1] and 576 nM in assay [2].
For `Cc1nonc1C(=O)N[C@H](C(=O)Nc1ccc2c(c1)CC(C(=O)Nc1cccc(Cl)c1)(N1C[C@@H](C(C)C)NC1=O)C2)C(C1CC1)C1CC1` (stereo partly drawn) [Example 259, N-((2S)-1-((2-((3-chlorophenyl)carbamoyl)-2-((R)-4-isopropyl-2-oxoimidazolidin-1-yl)-2,3-dihydro-1H-inden-5-yl)amino)-3,3-dicyclopropyl-1-oxopropan-2-yl)-4-methyl-1,2,5-oxadiazole-3-carboxamide], in that order: 1020 nM and 1970 nM.
The corresponding values for `Cn1nccc1C(=O)NC(C(=O)Nc1ccc2c(c1)CC(N1C[C@@H](C(F)(F)F)NC1=O)C2)C1CCc2cc(Cl)ccc2C1` (stereo partly drawn) [Example 217, N-(1-(6-chloro-1,2,3,4-tetrahydronaphthalen-2-yl)-2-oxo-2-((2-((S)-2-oxo-4-(trifluoromethyl)imidazolidin-1-yl)-2,3-dihydro-1H-inden-5-yl)amino)ethyl)-1-methyl-1H-pyrazole-5-carboxamide] are 62.5 nM and 394 nM.
For `CNC(=O)C1(N2C[C@@H](C(C)C)NC2=O)Cc2ccc(NC(=O)[C@@H](NC(=O)c3ccnn3C)C3CCCCCC3)cc2C1` (stereo partly drawn) [Example 47, N-((1S)-1-cycloheptyl-2-((2-((R)-4-isopropyl-2-oxoimidazolidin-1-yl)-2-(methylcarbamoyl)-2,3-dihydro-1H-inden-5-yl)amino)-2-oxoethyl)-1-methyl-1H-pyrazole-5-carboxamide], in that order: 11 nM and 11.6 nM.
As for `Cc1nonc1C(=O)N[C@H](C(=O)Nc1ccc2c(c1)CC(C(O)C(F)(F)F)(N1CC(C(F)(F)F)NC1=O)C2)C(C1CC1)C1CC1` (stereo partly drawn) [Example 270, N-((2S)-1,1-dicyclopropyl-3-oxo-3-((2-(2-oxo-4-(trifluoromethyl)imidazolidin-1-yl)-2-(2,2,2-trifluoro-1-hydroxyethyl)-2,3-dihydro-1H-inden-5-yl)amino)propan-2-yl)-4-methyl-1,2,5-oxadiazole-3-carboxamide], the IC50 in assay [1] came out at 200 nM; in assay [2], 350 nM.
The corresponding values for `Cn1nccc1C(=O)N[C@H](C(=O)Nc1ccc2c(c1)CC(C(=O)O)(N1CC3(CC3)CNC1=O)C2)C1CCCCC1` (stereo partly drawn) [Example 189, 5-((S)-2-cyclohexyl-2-(1-methyl-1H-pyrazole-5-carboxamido)acetamido)-2-(6-oxo-5,7-diazaspiro[2.5]octan-5-yl)-2,3-dihydro-1H-indene-2-carboxylic acid] are 15.3 nM and 124 nM.
The corresponding values for `Cn1nccc1C(=O)NC(C(=O)Nc1ccc2c(c1)CC(N1C[C@@H](C(F)(F)F)NC1=O)C2)C1Cc2ccc(Cl)cc2C2(CC2)C1` (stereo partly drawn) [Example 224, N-(1-(7′-chloro-3′,4′-dihydro-2′H-spiro[cyclopropane-1,1′-naphthalen]-3′-yl)-2-oxo-2-((2-((S)-2-oxo-4-(trifluoromethyl)imidazolidin-1-yl)-2,3-dihydro-1H-inden-5-yl)amino)ethyl)-1-methyl-1H-pyrazole-5-carboxamide] are 47.8 nM and 85.1 nM.

The record behind these values is US20250154138A1, “Small Molecule IL-17A Modulators” (BeiGene, Ltd., priority 2022, published 2025).
